Results as given in the supplement of paper PMC11451515.

Tested on: P12-Ichikawa
Assay: cell viability relative to DMSO control; higher = less cytotoxic
Details: 48 h
Method in brief: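 Viability was expressed as a per-plate percentage of DMSO wells, with cell-free wells as background. Leukemia cells (NOMO1 or SEM at 500 cells/well, P12-Ichikawa at 1000 cells/well) were adapted for at least four passages in each medium and seeded in 1536-well plates (5 μl). Library compounds in DMSO were pin-dosed over an 11-point threefold series from 47 μM to 0.79 nM, and CellTiter-Glo One luminescence was read after 48 h at 37°C.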

[1] = HPLM + 10% dialyzed FBS, 0.000781 µM
[2] = HPLM + 10% dialyzed FBS, 0.00234 µM
[3] = HPLM + 10% dialyzed FBS, 0.00702 µM
[4] = HPLM + 10% dialyzed FBS, 0.0211 µM
[5] = HPLM + 10% dialyzed FBS, 0.0632 µM
[6] = HPLM + 10% dialyzed FBS, 0.19 µM
[7] = HPLM + 10% dialyzed FBS, 0.569 µM
[8] = HPLM + 10% dialyzed FBS, 1.71 µM
[9] = HPLM + 10% dialyzed FBS, 5.12 µM
[10] = HPLM + 10% dialyzed FBS, 15.4 µM
[11] = HPLM + 10% dialyzed FBS, 46.1 µM
[12] = RPMI 5 mM glucose + 10% FBS, 0.000781 µM
[13] = RPMI 5 mM glucose + 10% FBS, 0.00234 µM
[14] = RPMI 5 mM glucose + 10% FBS, 0.00702 µM
[15] = RPMI 5 mM glucose + 10% FBS, 0.0632 µM
[16] = RPMI 5 mM glucose + 10% FBS, 0.19 µM
[17] = RPMI 5 mM glucose + 10% FBS, 0.569 µM
[18] = RPMI 5 mM glucose + 10% FBS, 1.71 µM
[19] = RPMI 5 mM glucose + 10% FBS, 5.12 µM
[20] = RPMI 5 mM glucose + 10% FBS, 15.4 µM
[21] = RPMI 5 mM glucose + 10% FBS, 46.1 µM
[22] = RPMI 5 mM glucose + 10% dialyzed FBS, 0.000781 µM
[23] = RPMI 5 mM glucose + 10% dialyzed FBS, 0.00234 µM
[24] = RPMI 5 mM glucose + 10% dialyzed FBS, 0.00702 µM
[25] = RPMI 5 mM glucose + 10% dialyzed FBS, 0.0211 µM
[26] = RPMI 5 mM glucose + 10% dialyzed FBS, 0.0632 µM
[27] = RPMI 5 mM glucose + 10% dialyzed FBS, 0.19 µM
[28] = RPMI 5 mM glucose + 10% dialyzed FBS, 0.569 µM
[29] = RPMI 5 mM glucose + 10% dialyzed FBS, 1.71 µM
[30] = RPMI 5 mM glucose + 10% dialyzed FBS, 5.12 µM
[31] = RPMI 5 mM glucose + 10% dialyzed FBS, 15.4 µM
[32] = RPMI 5 mM glucose + 10% dialyzed FBS, 46.1 µM
[33] = RPMI 5 mM glucose + 10% FBS, 0.0211 µM

SMILES | cell viability [1] | cell viability [2] | cell viability [3] | cell viability [4] | cell viability [5] | cell viability [6] | cell viability [7] | cell viability [8] | cell viability [9] | cell viability [10] | cell viability [11] | cell viability [12] | cell viability [13] | cell viability [14] | cell viability [15] | cell viability [16] | cell viability [17] | cell viability [18] | cell viability [19] | cell viability [20] | cell viability [21] | cell viability [22] | cell viability [23] | cell viability [24] | cell viability [25] | cell viability [26] | cell viability [27] | cell viability [28] | cell viability [29] | cell viability [30] | cell viability [31] | cell viability [32] | cell viability [33]
C=CCc1cccc(/C=N/NC(=O)CN2CCN(Cc3ccccc3)CC2)c1O | 120% | 115% | 119% | 118% | 116% | 117% | 117% | 106% | 97% | 64.2% | 7.9% | 110% | 102% | 113% | 110% | 113% | 108% | 108% | 94.5% | 52.9% | 17.1% | 109% | 99.7% | 109% | 114% | 109% | 101% | 112% | 102% | 87.5% | 44.8% | 13.5% | –
COc1cccc([C@@H](C)NCCCc2ccccc2Cl)c1 | 93.8% | 98% | 89.9% | 93.3% | 97.5% | 99.9% | 94.4% | 92.7% | 99.3% | 99.2% | 106% | 95% | 94.2% | 94.3% | 96.9% | 91.9% | 94.1% | 92.8% | 90.6% | 94.9% | 103% | 83.1% | 87.5% | 85.3% | 88.1% | 91.3% | 90.7% | 87.4% | 91.4% | 95.2% | 98.1% | 99.8% | 85.9%
COc1ccc([C@@H]2CC(=O)c3c(O)cc(O[C@@H]4O[C@H](CO[C@@H]5O[C@@H](C)[C@H](O)[C@@H](O)[C@H]5O)[C@@H](O)[C@H](O)[C@H]4O)cc3O2)cc1O | 97.9% | 99% | 116% | 118% | 113% | 116% | 107% | 116% | 114% | 111% | 116% | 96.2% | 101% | 110% | 107% | 114% | 111% | 106% | 107% | 116% | 109% | 104% | 111% | 109% | 108% | 114% | 111% | 113% | 111% | 108% | 115% | 109% | 113%
Cc1cnc(C(=O)O)c[n+]1[O-] | 115% | 120% | 112% | 115% | 112% | 116% | 114% | 119% | 111% | 107% | 105% | 122% | 128% | 124% | 120% | 127% | 125% | 127% | 116% | 119% | 100% | 121% | 130% | 123% | 111% | 117% | 123% | 120% | 108% | 115% | 109% | 102% | 126%
COC(=O)C1C2CC3c4[nH]c5cc(OC)ccc5c4CCN3CC2CC(OC(=O)c2cc(OC)c(OC)c(OC)c2)C1OC (stereo unspecified) | 106% | 109% | 112% | 107% | 115% | 111% | 101% | 105% | 110% | 107% | 102% | 115% | 120% | 121% | 107% | 109% | 118% | 112% | 111% | 113% | 91% | 121% | 106% | 119% | 114% | 104% | 113% | 105% | 106% | 107% | 99.5% | 102% | 114%
CCCCCCCCCC(=O)N[C@@H](Cc1c[nH]c2ccccc12)C(=O)N[C@H](CC(N)=O)C(=O)N[C@@H](CC(=O)O)C(=O)N[C@@H]1C(=O)NCC(=O)N[C@@H](CCCN)C(=O)N[C@@H](CC(=O)O)C(=O)N[C@H](C)C(=O)N[C@@H](CC(=O)O)C(=O)NCC(=O)N[C@H](CO)C(=O)N[C@@H]([C@@H](C)CC(=O)O)C(=O)N[C@@H](CC(=O)c2ccccc2N)C(=O)O[C@@H]1C | 116% | 122% | 112% | 123% | 121% | 122% | 126% | 123% | 122% | 124% | 129% | 106% | 111% | 113% | 131% | 127% | 126% | 129% | 125% | 125% | 4.51% | 106% | 111% | 110% | 113% | 133% | 116% | 117% | 126% | 121% | 131% | 115% | 121%
CCCCC(C=O)NC(=O)C(CC(C)C)NC(=O)OCc1ccccc1 (stereo unspecified) | 90.9% | 94.3% | 95.8% | 90.7% | 95.6% | 91.8% | 91.1% | 85.7% | 80.6% | 81% | 70.5% | 88% | 91.3% | 90.3% | 91.6% | 84.2% | 80.6% | 82.3% | 78.3% | 73.7% | 51.7% | 86.1% | 85.4% | 83% | 86.9% | 79.6% | 84.8% | 81.3% | 76.7% | 71.3% | 70.6% | 53.7% | 82.1%
Cc1cc(C(=O)N2CCN(c3cccc(Cl)c3)CC2)n(-c2ccccc2)n1 | 109% | 107% | 103% | 107% | 103% | 103% | 105% | 50.2% | 23.9% | 10.1% | 12.5% | 105% | 113% | 102% | 101% | 90.2% | 101% | 80.5% | 36.8% | 10.4% | 16.6% | 101% | 92.8% | 105% | 104% | 103% | 91.2% | 95.5% | 70.1% | 40.9% | 20.5% | 20.4% | 105%
CN(C)CC[C@H](c1ccc(Cl)cc1)c1ccccn1 | 83.7% | 78.9% | 84.2% | 84.8% | 90.7% | 90.3% | 85.8% | 90.9% | 87.1% | 86% | 89.7% | 76.9% | 78% | 75.6% | 80.8% | 80.8% | 90.4% | 85.2% | 84.1% | 81.2% | 82.3% | 69.9% | 81.6% | 73.6% | 83.9% | 86.2% | 80.9% | 78.1% | 78.8% | 76.9% | 82.3% | 77.5% | 78.9%
COC1=C2C[C@@H](C)C[C@H](OC)[C@H](O)[C@@H](C)/C=C(\C)[C@H](OC(N)=O)[C@@H](OC)/C=C/C=C(\C)C(=O)NC(=CC1=O)C2=O | 114% | 106% | 116% | 109% | 107% | 113% | 98.6% | 104% | 77.4% | 48.4% | 38.6% | 106% | 109% | 108% | 108% | 108% | 102% | 90.8% | 80.5% | 51.5% | 27.2% | 116% | 117% | 114% | 111% | 108% | 111% | 108% | 94.4% | 72.2% | 34.2% | 28% | 112%
CC[C@]12\C=C/CN3CC[C@]4([C@@H](N(C)C5=CC(=C(C=C45)[C@]6(C[C@H]7C[C@H](CN(C7)CC8=C6[NH]C9=C8C=CC=C9)C(C)(F)F)C(=O)OC)OC)[C@](O)([C@@H]1OC(C)=O)C(=O)OC)[C@H]23 | 91.9% | 93.3% | 92% | 69.4% | 37% | 12% | 15.3% | 13.2% | 8.31% | 8.59% | 6.21% | 93.7% | 88.8% | 85.9% | 18.6% | 13.9% | 20.9% | 11.4% | 8.45% | 7.91% | 5.99% | 87.4% | 83% | 83.5% | 79.3% | 51.6% | 27.1% | 26.5% | 21.5% | 16.1% | 13% | 5.7% | 63.7%
c1ccc(CNc2nc(N3CCOc4ccccc43)nc3c2CCCC3)cc1 | 101% | 102% | 107% | 108% | 117% | 99.5% | 128% | 115% | 109% | 107% | 107% | 102% | 99.9% | 100% | 105% | 110% | 111% | 106% | 108% | 100% | 96.9% | 102% | 112% | 107% | 114% | 110% | 105% | 110% | 116% | 105% | 103% | 104% | 106%
NC(=O)c1cccc2nc(-c3ccc([C@H]4CCCN4)cc3F)[nH]c12 | 99.9% | 110% | 105% | 114% | 115% | 111% | 120% | 114% | 105% | 95.8% | 84.2% | 97% | 97.6% | 100% | 114% | 113% | 123% | 112% | 109% | 103% | 70.1% | 99.5% | 105% | 110% | 119% | 109% | 119% | 121% | 116% | 120% | 107% | 65.1% | 105%
COc1ccc(Nc2nccc(NCCO)n2)cc1 | 73.7% | 83.2% | 82.1% | 84.8% | 88.2% | 85.2% | 81.9% | 81.5% | 76.7% | 89.5% | 80.8% | 72% | 81.3% | 79.4% | 89.8% | 81.5% | 76.8% | 73.6% | 79% | 85% | 85.3% | 69% | 76.7% | 78% | 81.5% | 78.9% | 81.7% | 79.9% | 81.9% | 78.4% | 79.9% | 77.9% | 86.8%
